The target in assay [1] is T1, hiNOS (Homo sapiens, UniProt P35228).
T1 construct: expressed in transfected cells; host or cells: HEK293
Nature of the assay: DAN assay, hiNOS expressed in transiently transfected HEK293 cells. Format: cell-based. The following applies: HEK293 cells transiently transfected with hiNOS. Summed up: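 Human iNOS, nNOS or eNOS transiently expressed in HEK293 cells, with nNOS and eNOS needing added cofactors for activity. NO production is read as nitrite by fluorometry: 2,3-diaminonaphthalene forms fluorescent […], detecting 10 nM to 10 μM nitrite.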

In assay [2] the target is T2, iNOS (Rattus norvegicus, UniProt Q06518).
T2 construct: from tissue; host or cells: whole animal: male Lewis rats after LPS injection; blood samples collected
Nature of the assay: LPS challenge (LPS induced iNOS in vivo). The following applies: for ED50: ED50 class. The text has this:
Inhibition of induction of iNOS can be quantified via the LPS challenge. Inflammation, edema, and the onset of sepsis can be observed following an injection of lipopolysaccharide (LPS), a substance produced by Gram-negative bacteria. […] (Iuvone T et al., Evidence that inducible nitric oxide synthase is involved in LPS-mediated plasma leakage in rat skin through the activation of nuclear factor-κB, Br J Pharm 1998:123 1325-1330.) As described above, the level of nitric oxide in the specimen can be quantified by correlation with plasma nitrate or nitrite levels via chemiluminescence, fluorescence, spectrophotometric assays, or by any method known in the art which provides adequate sensitivity and reproducibility, including those described above.
Male Lewis rats weighing 150-250 g are used in the studies. Rats may be fasted for up to 16 hours prior to the administration of LPS. Free access to water is maintained. Test compounds are administered with LPS or alone. Compounds are dissolved in the vehicle of 0.5% methycele/0.025% Tween 20 or 20% encapsin for oral administration. For the intravenous dosing, compounds are dissolved in saline or 0.5-3% DMSO/20% encapsin. The dosing volumes are 1-2 ml for oral and 0.3-1 ml for intravenous administration.
LPS is injected intravenously (under anesthesia) or intraperitoneally in sterile saline at a dose between 0.1-10 mg/kg in a volume not excess to 1 ml. The needle is 26-30 gauge. […] In routine screening experiments, rats are sacrificed 1.5-6 hr after LPS injection and a terminal bleeding is performed under anesthesia to collect 1-3 ml blood samples and then animals are then euthanized by CO2.

As usually defined, the EC50 is the concentration that produces a half-maximal response. High values mean weaker potency, low ones greater potency. A word on the ED50: it is the dose that gives a 50% effect, or the effect in half of the subjects. A lower ED50 goes with greater potency. Take `CN(CCCNCc1ccc2c(c1)OCO2)c1nc(-n2ccnc2)ns1` [Example 2, N′-Benzo[1,3]dioxol-5-ylmethyl-N-(3-imidazol-1-yl-[1,2,4]thiadiazol-5-yl)-N-methyl-propane-1,3-diamine]: the concentration for a half-maximal effect (EC50) in assay [1] was under 1000 nM. Moreover, in assay [2], the ED50 is under 10 mg/kg.

Take `Cc1cc(C2CCCN2C(=O)NCCc2ccc3c(c2)OCO3)nc(-n2ccnc2)n1` (stereo not drawn) [Example 4, 2-(2-Imidazol-1-yl-6-methyl-pyrimidin-4-yl)-pyrrolidine-1-carboxylic acid (2-benzo[1,3]dioxol-5-yl-ethyl)-amide]: the EC50 in assay [1] is under 1000 nM. This compound yielded an ED50 in assay [2] of under 10 mg/kg.

One may read the inhibition as how much of the control response was suppressed. Regarding `Cc1cc(C2CCCN2C(=O)CNCc2ccc3c(c2)OCO3)nc(-n2ccnc2)n1` (stereo not drawn) [Example 5], the EC50 in assay [1] was under 1000 nM. The compound also registered an inhibition at 16 mg/kg in assay [2] (at 16 mg/kg) of 64%.
